{"source": "patent US8772005B2", "about": "“Laccases, compositions and methods of use” (Danisco US Inc., priority 2006, dated 2014)", "test_system": "Thielavia sp. laccase", "assay": "Bleaching of solubilized indigo by laccase/mediator combinations, 96-well microtitre plate, absorbance at 600 nm", "type": "biochemical", "description": "An assay for the bleaching of the solubilized indigo substrate by laccase/mediator combinations was performed in a 96-well microtitre plate as follows\nA saturated solution of indigo in N-methylpyrrolidone (NMP) was prepared by stirring indigo (30 mg) in NMP (10 ml) at room temperature for 5 hours. The NMP solution was diluted 10-fold into an aqueous buffer solution resulting in a blue solution. For example, dilution into 50 mM sodium acetate buffer at pH 5, or 50 mM sodium phosphate buffer at pH 7. Solutions were shaken well immediately before use.\nThe assay for the bleaching of the solubilized indigo substrate was performed in a 96-well microtitre plate whereby each well received the soluble indigo solution in 50 mM sodium acetate buffer at pH 5 (180 uL), laccase (10 ppm enzyme) and mediator solution (from a 20 mM stock solution in methanol). The total volume of each well was adjusted to 200 uL with deionzed water. A control containing laccase only was run in duplicate. The plate was sealed and incubated at 50° C. for 2 hours at 800 rpm on a heated agitator (Thermomixer, Eppendorf). Following this period, the plates were unsealed and a solution of ascorbic acid (20 uL of a 10% aqueous solution) added to each well in order to reduce the oxidized forms of the mediators. The extent of indigo bleaching was then assessed by determining the absorbance for each well at 600 nm using a microtitre plate reader. The lower the absorbance reading, the greater the extent of indigo bleaching.\nLaccases derived from Myceliophtora (Denilite® II, Novozymes, Bagsvaerd, Denmark), Thielavia (Ecostone LCC10, AB enzymes, Darmstadt, Germany) and Cerrena sp. were assessed for their ability to bleach solubilized indigo in conjunction with low molecular weight mediators at two pH values."}
{"smiles": "CCn1c(=NN=c2sc3cc(S(=O)(=O)O)ccc3n2CC)sc2cc(S(=O)(=O)O)ccc21", "note": "[ABTS]", "values": [{"measurement": "effectiveness of mediator for indigo bleaching (in words)", "setting": "mediator concentration 50 uM", "result": "most effective mediator"}, {"measurement": "effectiveness of mediator for indigo bleaching (in words)", "setting": "mediator concentration 500 uM", "result": "most effective mediator"}]}
{"smiles": "COc1cc(C(=O)O)cc(OC)c1O", "note": "[Syringic acid, syringic acid]", "values": [{"measurement": "effectiveness of mediator for indigo bleaching (in words)", "setting": "mediator concentration 50 uM", "result": "bleached soluble indigo no more effectively than the control condition"}]}
